The results in this text go back to paper PMC13447983, “Identifying and characterising a plant GH1 β‐glucosidase that exhibits hydrolytic activity on N‐linked glucopyranoside” (FEBS Open Bio, 2026).

For this assay, the target named is T1, ZmGlu1 (Zea mays, UniProt P49235).
T1 construct: gene GLU1; E. coli BL21 Star (DE3)
The assay is described as follows: HPLC of released methyl anthranilate at […] nm, Michaelis-Menten fit. As to conditions: 50 mM phosphate pH 6.0, 35 °C, 3 μM enzyme, 1.17-20 mM substrate. The class given is biochemical.

SMILES strings stand for the structures.

T1 sequence (P49235 55-566): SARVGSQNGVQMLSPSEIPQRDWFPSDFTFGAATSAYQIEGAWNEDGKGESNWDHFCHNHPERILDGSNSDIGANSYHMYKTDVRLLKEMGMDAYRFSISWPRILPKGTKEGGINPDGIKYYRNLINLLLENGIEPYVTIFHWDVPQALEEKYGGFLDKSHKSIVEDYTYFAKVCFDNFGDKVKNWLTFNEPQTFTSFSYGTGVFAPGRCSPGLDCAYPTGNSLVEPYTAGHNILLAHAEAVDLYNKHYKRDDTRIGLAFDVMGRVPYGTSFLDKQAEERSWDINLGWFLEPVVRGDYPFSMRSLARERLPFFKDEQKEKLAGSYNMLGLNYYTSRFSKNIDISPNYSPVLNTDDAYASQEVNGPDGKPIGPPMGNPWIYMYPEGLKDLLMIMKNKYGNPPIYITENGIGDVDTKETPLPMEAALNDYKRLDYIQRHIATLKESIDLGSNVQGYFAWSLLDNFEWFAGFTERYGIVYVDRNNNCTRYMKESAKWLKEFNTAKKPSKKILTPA

With `COC(=O)c1ccccc1N[C@@H]1O[C@H](CO)[C@@H](O)[C@H](O)[C@H]1O` [MANT‐N‐glucose, methyl anthranilate‐N‐β‐D‐glucopyranoside], the Km was 13.7 ± 1.22 mM.
